The subject of test [1] is BV-2 cells. Briefly: Western blot of iNOS and COX-2 in LPS-induced BV-2 cells. In kind it is cell-based, murine. Particulars: 1 μg/ml LPS, 10, 20, 50 μM, 24 h. Here is the method:
(§1) Total cell proteins were lysed using cell extraction buffer containing phenylmethylsulfonyl ﬂuoride and protease inhibitor cocktail. The cytosolic and nuclear extracts were collected using the Nuclear and Cytosolic extraction kit. The protein extracts were separated on SDS-PAGE and transferred to PVDF membranes (Millipore). The membrane was blocked with 5% nonfat milk for 1 h at room temperature, and incubated with indicated primary antibodies overnight at 4°C. After washing, the membrane was incubated with secondary antibodies conjugated to horseradish peroxidase (Proteintech, USA) at room temperature for 1 h. Then, the proteins of interest were visualized utilizing a chemiluminescence (ECL) detection system. The relative optical densities were analyzed using the Image Master™ 2D Elite software.
For orientation: Immunoblotting shows a protein as a band on a membrane.

For the next test, the system named is ERK1/2-JNK1/2-p38 MAPKs. Briefly: MAPK phosphorylation in LPS-induced BV-2 cells (Western blot). In kind it is cell-based, murine. The conditions noted are these: 1 μg/ml LPS, 10, 20, 50 μM, 3 h. Here is the method:
as §1

For test [2], the system named is BV-2 cells. Briefly: LPS-induced NO production in BV-2 cells (Griess method). In kind it is cell-based, murine. The conditions noted are these: 1 μg/ml LPS, 24 h. Here is the method:
BV-2 cells (murine microglia cell line) was obtained from Peking Union Medical College, Cell Bank (Beijing, China) and maintained in DMEM containing 10% FBS. Cells were grown in a humidified atmosphere of 5% CO2 incubator at 37°C.
BV2 cells were seeded and incubated overnight, and followed by treatment with different doses of circumdatins for indicated period with or without LPS (1 μg/ml) stimulation. The cells without circumdatins and LPS treatment were used as the control group.
The NO levels in culture media was determined using a Griess method. Cells were treated with different concentrations of circumdatins in the presence or absence of LPS for 24 h. After that, the supernatant fraction of the culture media was collected and mixed with the same volume of Griess reagent (1% sulfanilamide/0.1% naphthyl ethylene diamine dihydrochloride/2% H3PO4). Then, the absorbance was measured at 540 nm using a microplate spectrophotometer (Thermo Scientifics, USA). The concentration of nitrite was calculated from a calibration curve obtained from standards sodium nitrite solutions.
For orientation: Nitrite, measured by Griess reagent, commonly stands in for NO production.

In test [3] the test system is BV-2 cells. The test can be described thus: RT-PCR of TNF-α, IL-1β, iNOS and COX-2 mRNA in LPS-induced BV-2 cells. In kind it is cell-based, murine. Particulars: 1 μg/ml LPS, 10, 20, 50 μM, 24 h. Here is the method: Total RNA was extracted using TRIzol reagent (Life Technologies, NY) and then reverse-transcribed into cDNA by reverse transcriptase (Invitrogen). mRNA expression of target genes iNOS, COX-2, IL-1β and TNF-α was quantified in comparison to housekeeping gene GAPDH using SYBR green detection method on ABI 7500 system (Applied Biosystems). The relative gene expression was calculated using comparative Ct (ΔΔCt) method. The following primers in Table 1 were used in this study.

For a further test, the system named is C. elegans CL4176. The test can be described thus: Paralysis assay in transgenic C. elegans CL4176. In kind it is in vivo, Caenorhabditis elegans. The conditions noted are these: 36 h after temperature upshift 16 to 25°C. Here is the method:
The in vivo effects of circumdatin D on pro-inflammatory response and AChE activity were evaluated using C. elegans as animal model. Transgenic C. elegans CL4176 and E. coli OP50 were bought from the Caenorhabditis Genetics Center (University of Minnesota, Minneapolis, MN, USA). CL4176 strain become paralysis after up-shifting temperature from 16 to 25°C due to expressing human β-amyloid peptide in muscle cells. The nematodes were cultivated on nematode growth medium (NGM) plates (1.7% Agar, 0.3% NaCl, 0.25% peptone, 1 mM CaCl2, 1 mM MgSO4, 5 mg/L cholesterol, and 2.5 mM K2HPO4) with E. coli OP50 at 16°C. In paralysis assay, egg-synchronized CL4176 nematodes were incubated on solid NGM plates with E. coli OP50 at 16°C. When the age of the worms grew to L4 stage, nematodes were divided into four groups and exposed to appropriate concentrations of circumdatin D or vehicle control (0.4% DMSO) at 16 °C for 36 h. The temperature was then raised from 16 to 25°C, the number of paralyzed worms was counted under the microscope. The paralyzed worms were recognized for those with no response or only moved head when gently touched with a platinum wire. Each independent assay included three NGM plates with 30 worms for each one. Likewise, the AChE activity and RT-PCR assay was employed using similar conditions.
In paralysis assay, CL4176 worms were egg-synchronized onto fresh NGM plates containing OP50 bacteria at 16℃. To induce the transgene expression, the temperature raised from 16 to 25℃ and lasted until the end of the paralysis assay. The recording was performed at two hours interval typically after 24h at 25 °C until the majority of worm became paralyzed. The worms were considered as paralyzed if there was no response or they only moved their head when gently touched with a platinum wire. Each independent assay included three NGM plates with twenty worms in each one.

For the compound `COc1ccc2c(c1)C(=O)N1CCC[C@H]1c1nc3ccc(OC)cc3c(=O)n1-2` [circumdatin D], in the test on BV-2 cells [1], the “iNOS and COX-2 protein expression” value was “reduced LPS-induced COX-2 and iNOS expression dose-dependently”. Also, the “MAPK (ERK1/2, JNK1/2, p38) phosphorylation” value in the test with ERK1/2-JNK1/2-p38 MAPKs is “markedly suppressed the phosphorylation”. In addition, in the test on BV-2 cells [2], the “LPS-induced NO production” value is recorded as “significant reduction of NO levels”. In addition, the “iNOS and COX-2 mRNA expression levels (q-PCR)” value in the test on BV-2 cells [3] was “dose-dependently decreasing the expression levels of both iNOS and COX-2”. In addition, the “proinflammatory cytokines mRNA levels” value with BV-2 cells [3] was “significantly decreased proinflammatory cytokines”. The reduction of paralysis entry in the test with C. elegans CL4176 (CL4176, 50 μM) is on record as “about 24.9%”; with C. elegans CL4176 (CL4176, 100 μM) it was about 42.8%; in the test on C. elegans CL4176 (CL4176, 200 μM), about 74.8%.

The values are drawn from publication PMC7261837, “Circumdatin D Exerts Neuroprotective Effects by Attenuating LPS-Induced Pro-Inflammatory Responses and Downregulating Acetylcholinesterase Activity In Vitro and In Vivo” (Frontiers in Pharmacology, 2020).
